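Assay format: 96-well plates, 48-hour exposure. GI50 marks 50% less growth.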 Calls of active or inactive are those of the source. Cut-off read from the data, not from the text of the source: active = GI50 up to about 1.1 µM and inactive = higher.
Key:
Experiment in all cases: growth of human tumour cells (NCI), 48 h
786-0 = test system: 786-0
ACHN = test system: ACHN
CCRF-CEM = test system: CCRF-CEM
DU-145 = test system: DU-145
HCC 2998 = test system: HCC 2998
HCT-116 = test system: HCT-116
HT-29 = test system: HT-29
IGROV-1 = test system: IGROV-1
KM12 = test system: KM12
M14 = test system: M14
MCF7 = test system: MCF7
MDA-MB-231 = test system: MDA-MB-231
Malme-3M = test system: Malme-3M
OVCAR-5 = test system: OVCAR-5
PC-3 = test system: PC-3
RXF 393 = test system: RXF 393
SF-539 = test system: SF-539
SK-MEL-28 = test system: SK-MEL-28
SR = test system: SR
SW-620 = test system: SW-620

Measured: GI50

C(=C\c1cccc(/C=C/c2ccccn2)n1)/c1ccccn1
inactive: 786-0 > 100 µM | ACHN 35.2 µM | CCRF-CEM 37 µM | DU-145 > 100 µM | HCC 2998 79.6 µM | HCT-116 68.9 µM | HT-29 56.8 µM | IGROV-1 61.8 µM | KM12 46.8 µM | M14 43.3 µM | MCF7 26.6 µM | MDA-MB-231 > 100 µM | Malme-3M 17.3 µM | OVCAR-5 > 100 µM | PC-3 58.9 µM | RXF 393 62.1 µM | SF-539 > 100 µM | SK-MEL-28 81.3 µM | SR 62.2 µM | SW-620 59.4 µM

C[C@@H](CC(=O)OCc1ccccc1)OC1OC(COC(=O)C(C)(C)C)C(OC(=O)C(C)(C)C)C(OC(=O)C(C)(C)C)C1OC(=O)C(C)(C)C (stereo not given in full)
inactive: 786-0 > 100 µM | ACHN > 100 µM | CCRF-CEM > 100 µM | DU-145 > 100 µM | HCC 2998 > 100 µM | HCT-116 > 100 µM | HT-29 > 100 µM | IGROV-1 > 100 µM | KM12 > 100 µM | M14 > 100 µM | MCF7 > 100 µM | MDA-MB-231 > 100 µM | Malme-3M > 100 µM | OVCAR-5 > 100 µM | PC-3 > 100 µM | RXF 393 > 100 µM | SF-539 > 100 µM | SK-MEL-28 > 100 µM | SR > 100 µM | SW-620 > 100 µM

N#CCN1CCCN(CC#N)CCN(CC#N)CCCN(CC#N)CC1
inactive: 786-0 > 100 µM | ACHN > 100 µM | CCRF-CEM 89.9 µM | DU-145 > 100 µM | HCC 2998 > 100 µM | HCT-116 > 100 µM | HT-29 > 10 µM | IGROV-1 > 100 µM | KM12 39.9 µM | M14 > 100 µM | MCF7 > 100 µM | MDA-MB-231 > 100 µM | Malme-3M > 100 µM | OVCAR-5 > 100 µM | PC-3 > 100 µM | RXF 393 > 100 µM | SF-539 > 100 µM | SK-MEL-28 > 100 µM | SR > 100 µM | SW-620 86.9 µM

COc1ccc(N(C(=O)NCCO)c2ccccc2)cc1
inactive: 786-0 > 100 µM | ACHN > 100 µM | CCRF-CEM > 100 µM | DU-145 > 100 µM | HCC 2998 > 100 µM | HCT-116 > 100 µM | HT-29 > 100 µM | IGROV-1 > 100 µM | KM12 > 100 µM | M14 > 100 µM | MCF7 > 100 µM | MDA-MB-231 > 100 µM | Malme-3M > 100 µM | OVCAR-5 > 100 µM | PC-3 > 100 µM | RXF 393 > 100 µM | SF-539 > 100 µM | SK-MEL-28 > 100 µM | SR > 100 µM | SW-620 > 100 µM

c1ccc(CC(Nc2cccnc2)c2ccccc2)cc1 (stereo not given)
inactive: 786-0 21.3 µM | ACHN 37.7 µM | CCRF-CEM 16.4 µM | DU-145 29.6 µM | HCC 2998 21.2 µM | HCT-116 15.5 µM | HT-29 16.4 µM | IGROV-1 31 µM | KM12 24.2 µM | M14 17.9 µM | MCF7 28.9 µM | MDA-MB-231 20 µM | Malme-3M 29 µM | OVCAR-5 33.3 µM | PC-3 24.8 µM | RXF 393 18.6 µM | SF-539 20.6 µM | SK-MEL-28 31 µM | SR 23.9 µM | SW-620 33 µM

COc1ccc(C=O)cc1Oc1ccc(C[C@H]2c3c(cc(OC)c4c3Oc3cc5c(cc3O4)CCN(C)C5=O)CCN2C)cc1
inactive: 786-0 8.61 µM | ACHN 8.43 µM | CCRF-CEM 10 µM | DU-145 12.1 µM | HCC 2998 8.28 µM | HCT-116 7.05 µM | HT-29 7.52 µM | IGROV-1 7.16 µM | KM12 8.91 µM | M14 8.65 µM | MCF7 7.66 µM | MDA-MB-231 7.6 µM | Malme-3M 10.4 µM | OVCAR-5 12.1 µM | PC-3 8.75 µM | RXF 393 3.59 µM | SF-539 8.67 µM | SK-MEL-28 10.6 µM | SR 9.38 µM | SW-620 12.1 µM

COc1ccc2c3c(c(=O)n(C)c2c1OC)C=CC(C)(C)O3
inactive: 786-0 43.1 µM | ACHN 13.7 µM | CCRF-CEM 23.2 µM | DU-145 43.7 µM | HCC 2998 29.5 µM | HCT-116 29.9 µM | HT-29 24 µM | IGROV-1 36.1 µM | KM12 21.6 µM | M14 48.3 µM | MCF7 36.8 µM | MDA-MB-231 22 µM | Malme-3M 50.4 µM | OVCAR-5 82 µM | PC-3 33.7 µM | RXF 393 26.5 µM | SF-539 39.2 µM | SK-MEL-28 41.9 µM | SR 3.46 µM | SW-620 28.4 µM

Source: ChEMBL document CHEMBL1201862, “PubChem BioAssay data set” (2004)
